Measured values as given in ChEMBL document CHEMBL4507282, “Data for DCP probe BI-1950” (2021).

Legend:
[1] = target: Casein kinase I isoform gamma-1 (Homo sapiens) (UniProt Q9HCP0); settings: Compound concentration 1000.0 nM
[2] = system: Receptor-type tyrosine-protein kinase FLT3 (Homo sapiens), P36888 [D835H]; settings: Compound concentration 1000.0 nM
[3] = target: cGMP-dependent protein kinase 2 (Homo sapiens) (UniProt Q13237); settings: Compound concentration 1000.0 nM
[4] = target: Serine/threonine-protein kinase Nek1 (Homo sapiens) (UniProt Q96PY6); settings: Compound concentration 1000.0 nM
[5] = target: Serine/threonine-protein kinase PLK1 (Homo sapiens) (UniProt P53350); settings: Compound concentration 1000.0 nM
[6] = target: MAP/microtubule affinity-regulating kinase 3 (Homo sapiens) (UniProt P27448); settings: Compound concentration 1000.0 nM
[7] = target: Myotonin-protein kinase (Homo sapiens) (UniProt Q09013); settings: Compound concentration 1000.0 nM
[8] = target: Cyclin-dependent kinase 14 (Homo sapiens) (UniProt O94921); settings: Compound concentration 1000.0 nM
[9] = target: Tyrosine-protein kinase ITK/TSK (Homo sapiens) (UniProt Q08881); settings: Compound concentration 1000.0 nM
[10] = target: Interleukin-1 receptor-associated kinase 3 (Homo sapiens) (UniProt Q9Y616); settings: Compound concentration 1000.0 nM
[11] = target: ALK tyrosine kinase receptor (Homo sapiens) (UniProt Q9UM73); settings: Compound concentration 1000.0 nM
[12] = target: Fibroblast growth factor receptor 2 (Homo sapiens) (UniProt P21802); settings: Compound concentration 1000.0 nM
[13] = target: Tyrosine-protein kinase SYK (Homo sapiens) (UniProt P43405); settings: Compound concentration 1000.0 nM
[14] = system: Tyrosine-protein kinase ABL1 (Homo sapiens), P00519 [T315I]; settings: Compound concentration 1000.0 nM
[15] = target: Discoidin domain-containing receptor 2 (Homo sapiens) (UniProt Q16832); settings: Compound concentration 1000.0 nM
[16] = target: Phosphatidylinositol 4,5-bisphosphate 3-kinase catalytic subunit delta isoform (Homo sapiens) (UniProt O00329); settings: Compound concentration 1000.0 nM
[17] = system: Proto-oncogene tyrosine-protein kinase receptor Ret (Homo sapiens), P07949 [V804M]; settings: Compound concentration 1000.0 nM
[18] = target: Receptor tyrosine-protein kinase erbB-4 (Homo sapiens) (UniProt Q15303); settings: Compound concentration 1000.0 nM
[19] = target: Ephrin type-A receptor 8 (Homo sapiens) (UniProt P29322); settings: Compound concentration 1000.0 nM
[20] = target: Cyclin-dependent kinase 13 (Homo sapiens) (UniProt Q14004); settings: Compound concentration 1000.0 nM
[21] = target: Focal adhesion kinase 1 (Homo sapiens) (UniProt Q05397); settings: Compound concentration 1000.0 nM
[22] = target: Alpha-1B adrenergic receptor (Homo sapiens) (UniProt P35368); settings: Compound concentration 10.0 uM
[23] = target: Tyrosine-protein kinase receptor UFO (Homo sapiens) (UniProt P30530); settings: Compound concentration 1000.0 nM
[24] = system: Epidermal growth factor receptor (Homo sapiens), P00533 [T790M]; settings: Compound concentration 1000.0 nM
[25] = target: D(1B) dopamine receptor (Homo sapiens) (UniProt P21918); settings: Compound concentration 10.0 uM
[26] = target: Serine/threonine-protein kinase BRSK1 (Homo sapiens) (UniProt Q8TDC3); settings: Compound concentration 1000.0 nM
[27] = target: Mitogen-activated protein kinase kinase kinase 14 (Homo sapiens) (UniProt Q99558); settings: Compound concentration 1000.0 nM
[28] = system: Tyrosine-protein kinase ABL1 (Homo sapiens), P00519 [M351T]; settings: Compound concentration 1000.0 nM
[29] = target: Cyclin-dependent kinase 18 (Homo sapiens) (UniProt Q07002); settings: Compound concentration 1000.0 nM
[30] = target: Myosin-IIIb (Homo sapiens) (UniProt Q8WXR4); settings: Compound concentration 1000.0 nM
[31] = target: Mitogen-activated protein kinase kinase kinase 1 (Homo sapiens) (UniProt Q13233); settings: Compound concentration 1000.0 nM
[32] = target: GABA-A receptor; anion channel (Rattus norvegicus) (UniProt O09028+P15431+P18506+P18508+P19969+P20236+P23574+P23576+P28471+P28473+P30191+P62813+P63079+P63138+Q91ZM7+Q9ES14); settings: Compound concentration 10.0 uM
[33] = system: Receptor-type tyrosine-protein kinase FLT3 (Homo sapiens), P36888 [N841I]; settings: Compound concentration 1000.0 nM
[34] = target: Serine/threonine-protein kinase Sgk1 (Homo sapiens) (UniProt O00141); settings: Compound concentration 1000.0 nM
[35] = target: Casein kinase I isoform gamma-2 (Homo sapiens) (UniProt P78368); settings: Compound concentration 1000.0 nM
[36] = target: LIM domain kinase 2 (Homo sapiens) (UniProt P53671); settings: Compound concentration 1000.0 nM
[37] = target: SRSF protein kinase 2 (Homo sapiens) (UniProt P78362); settings: Compound concentration 1000.0 nM
[38] = system: Tyrosine-protein kinase ABL1 (Homo sapiens), P00519 [F317L]; settings: Compound concentration 1000.0 nM
[39] = target: Hepatocyte growth factor receptor (Homo sapiens) (UniProt P08581); settings: Compound concentration 1000.0 nM
[40] = target: Tyrosine-protein kinase ABL1 (Homo sapiens) (UniProt P00519); settings: Compound concentration 1000.0 nM
[41] = target: Tyrosine-protein kinase FRK (Homo sapiens) (UniProt P42685); settings: Compound concentration 1000.0 nM
[42] = target: Atypical kinase COQ8A, mitochondrial (Homo sapiens) (UniProt Q8NI60); settings: Compound concentration 1000.0 nM
[43] = system: Epidermal growth factor receptor (Homo sapiens), P00533 [UNDEFINED MUTATION]; settings: Compound concentration 1000.0 nM
[44] = system: Proto-oncogene tyrosine-protein kinase receptor Ret (Homo sapiens), P07949 [V804L]; settings: Compound concentration 1000.0 nM
Proto-oncogene tyrosine-protein kinase receptor Ret (Homo sapiens), P07949 [V804L], sequence (P07949 whole entry V804L): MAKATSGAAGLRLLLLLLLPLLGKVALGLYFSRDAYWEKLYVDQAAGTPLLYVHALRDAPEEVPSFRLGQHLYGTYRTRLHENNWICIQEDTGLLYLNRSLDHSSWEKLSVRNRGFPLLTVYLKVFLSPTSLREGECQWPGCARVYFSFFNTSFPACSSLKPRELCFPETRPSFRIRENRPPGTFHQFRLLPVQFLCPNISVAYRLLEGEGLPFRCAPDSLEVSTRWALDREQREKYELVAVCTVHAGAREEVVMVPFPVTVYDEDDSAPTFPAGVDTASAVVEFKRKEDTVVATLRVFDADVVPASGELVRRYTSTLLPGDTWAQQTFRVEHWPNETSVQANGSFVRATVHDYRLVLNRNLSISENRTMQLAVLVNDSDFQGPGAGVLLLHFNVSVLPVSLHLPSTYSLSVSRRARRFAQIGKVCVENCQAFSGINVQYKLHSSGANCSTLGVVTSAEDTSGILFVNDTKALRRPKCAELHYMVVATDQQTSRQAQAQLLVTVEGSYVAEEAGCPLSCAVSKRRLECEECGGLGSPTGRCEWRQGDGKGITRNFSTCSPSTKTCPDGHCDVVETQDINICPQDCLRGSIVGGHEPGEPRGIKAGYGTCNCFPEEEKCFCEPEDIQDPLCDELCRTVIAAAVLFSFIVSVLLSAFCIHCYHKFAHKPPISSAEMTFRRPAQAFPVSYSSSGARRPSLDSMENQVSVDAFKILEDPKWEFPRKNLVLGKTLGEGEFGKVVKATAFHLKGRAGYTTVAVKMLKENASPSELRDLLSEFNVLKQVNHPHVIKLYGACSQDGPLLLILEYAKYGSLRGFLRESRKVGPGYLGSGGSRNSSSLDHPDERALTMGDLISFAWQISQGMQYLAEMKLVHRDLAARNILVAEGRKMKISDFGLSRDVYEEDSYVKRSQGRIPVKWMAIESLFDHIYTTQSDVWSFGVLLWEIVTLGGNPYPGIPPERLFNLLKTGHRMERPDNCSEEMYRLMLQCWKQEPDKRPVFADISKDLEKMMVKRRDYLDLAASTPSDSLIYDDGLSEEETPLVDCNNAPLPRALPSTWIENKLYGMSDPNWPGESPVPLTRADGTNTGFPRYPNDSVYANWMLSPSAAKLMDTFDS

Proto-oncogene tyrosine-protein kinase receptor Ret (Homo sapiens), P07949 [V804M], sequence (P07949 whole entry V804M): as the sequence (P07949 whole entry V804L) above, with L804M counted along it
SRSF protein kinase 2 (Homo sapiens), sequence (P78362 whole entry, looked up): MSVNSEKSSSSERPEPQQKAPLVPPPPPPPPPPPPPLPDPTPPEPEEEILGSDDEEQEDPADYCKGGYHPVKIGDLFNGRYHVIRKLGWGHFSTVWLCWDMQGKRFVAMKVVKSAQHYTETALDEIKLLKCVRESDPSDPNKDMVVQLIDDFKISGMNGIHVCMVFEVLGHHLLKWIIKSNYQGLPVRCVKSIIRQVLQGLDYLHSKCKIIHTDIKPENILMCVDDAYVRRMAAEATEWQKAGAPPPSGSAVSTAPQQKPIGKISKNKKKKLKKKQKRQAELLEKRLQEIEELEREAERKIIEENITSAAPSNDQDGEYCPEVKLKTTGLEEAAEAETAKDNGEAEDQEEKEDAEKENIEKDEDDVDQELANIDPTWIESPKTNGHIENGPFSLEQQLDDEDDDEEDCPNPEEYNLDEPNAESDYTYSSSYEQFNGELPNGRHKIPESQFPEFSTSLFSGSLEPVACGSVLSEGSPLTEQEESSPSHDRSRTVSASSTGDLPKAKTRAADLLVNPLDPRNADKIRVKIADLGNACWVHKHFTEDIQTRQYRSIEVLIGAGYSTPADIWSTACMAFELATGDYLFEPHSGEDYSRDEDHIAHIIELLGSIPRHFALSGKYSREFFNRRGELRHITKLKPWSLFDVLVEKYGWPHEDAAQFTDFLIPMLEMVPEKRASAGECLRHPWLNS
Serine/threonine-protein kinase Nek1 (Homo sapiens), sequence (Q96PY6 whole entry): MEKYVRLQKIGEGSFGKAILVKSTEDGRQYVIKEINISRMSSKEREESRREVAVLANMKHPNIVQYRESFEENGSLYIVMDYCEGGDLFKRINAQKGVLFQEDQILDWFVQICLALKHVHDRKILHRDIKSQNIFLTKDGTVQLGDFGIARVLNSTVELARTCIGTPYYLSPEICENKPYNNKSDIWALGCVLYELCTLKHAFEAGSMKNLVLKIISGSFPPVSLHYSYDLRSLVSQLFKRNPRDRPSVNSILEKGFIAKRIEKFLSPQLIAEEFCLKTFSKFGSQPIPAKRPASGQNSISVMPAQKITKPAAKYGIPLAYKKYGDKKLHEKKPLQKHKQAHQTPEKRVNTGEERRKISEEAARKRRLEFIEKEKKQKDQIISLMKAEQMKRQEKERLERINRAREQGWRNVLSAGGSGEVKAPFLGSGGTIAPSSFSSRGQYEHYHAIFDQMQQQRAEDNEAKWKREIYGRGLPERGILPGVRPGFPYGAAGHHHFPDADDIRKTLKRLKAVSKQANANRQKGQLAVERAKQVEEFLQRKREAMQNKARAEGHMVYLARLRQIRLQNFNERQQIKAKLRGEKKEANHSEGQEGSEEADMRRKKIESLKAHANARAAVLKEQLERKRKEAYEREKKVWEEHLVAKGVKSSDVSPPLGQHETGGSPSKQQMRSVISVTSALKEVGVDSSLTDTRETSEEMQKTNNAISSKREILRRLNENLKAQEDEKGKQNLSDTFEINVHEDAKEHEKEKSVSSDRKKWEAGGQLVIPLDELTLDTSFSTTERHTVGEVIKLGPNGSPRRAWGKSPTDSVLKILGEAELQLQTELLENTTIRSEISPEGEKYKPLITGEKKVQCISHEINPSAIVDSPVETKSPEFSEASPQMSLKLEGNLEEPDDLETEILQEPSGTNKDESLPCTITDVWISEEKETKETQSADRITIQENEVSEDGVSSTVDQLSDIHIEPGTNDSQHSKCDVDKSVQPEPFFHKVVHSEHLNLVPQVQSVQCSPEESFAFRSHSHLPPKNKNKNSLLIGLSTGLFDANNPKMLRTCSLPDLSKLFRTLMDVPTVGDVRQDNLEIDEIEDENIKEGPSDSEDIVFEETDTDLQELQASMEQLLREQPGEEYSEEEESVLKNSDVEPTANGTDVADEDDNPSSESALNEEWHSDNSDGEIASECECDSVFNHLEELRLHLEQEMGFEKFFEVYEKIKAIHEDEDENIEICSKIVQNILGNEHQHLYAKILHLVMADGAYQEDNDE
Tyrosine-protein kinase FRK (Homo sapiens), sequence (P42685 whole entry): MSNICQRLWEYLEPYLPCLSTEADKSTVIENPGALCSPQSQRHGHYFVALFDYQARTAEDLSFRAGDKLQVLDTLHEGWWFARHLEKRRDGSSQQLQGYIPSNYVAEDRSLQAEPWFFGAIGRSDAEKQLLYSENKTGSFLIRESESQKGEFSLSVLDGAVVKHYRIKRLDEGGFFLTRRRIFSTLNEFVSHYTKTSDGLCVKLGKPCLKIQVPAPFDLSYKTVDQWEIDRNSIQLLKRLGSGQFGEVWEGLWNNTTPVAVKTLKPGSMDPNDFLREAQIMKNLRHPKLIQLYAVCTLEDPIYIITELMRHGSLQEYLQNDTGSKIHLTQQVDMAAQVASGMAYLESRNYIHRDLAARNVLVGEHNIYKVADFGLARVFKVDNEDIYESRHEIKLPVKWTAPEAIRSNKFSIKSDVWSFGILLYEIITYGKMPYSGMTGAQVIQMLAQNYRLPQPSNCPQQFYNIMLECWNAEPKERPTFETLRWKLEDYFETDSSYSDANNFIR
Serine/threonine-protein kinase Sgk1 (Homo sapiens), sequence (O00141 whole entry, canonical isoform): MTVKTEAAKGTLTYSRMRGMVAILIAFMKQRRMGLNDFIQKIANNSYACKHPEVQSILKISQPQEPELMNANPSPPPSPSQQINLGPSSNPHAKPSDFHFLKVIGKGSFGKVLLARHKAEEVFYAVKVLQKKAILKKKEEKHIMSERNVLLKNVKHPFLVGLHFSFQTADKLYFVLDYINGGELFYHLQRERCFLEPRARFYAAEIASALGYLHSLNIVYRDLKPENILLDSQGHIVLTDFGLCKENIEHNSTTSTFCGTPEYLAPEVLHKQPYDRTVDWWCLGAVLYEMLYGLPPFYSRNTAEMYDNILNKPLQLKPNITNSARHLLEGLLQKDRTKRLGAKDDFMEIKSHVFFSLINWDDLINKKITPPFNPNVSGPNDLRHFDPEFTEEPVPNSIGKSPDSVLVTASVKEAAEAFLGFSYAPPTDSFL
Alpha-1B adrenergic receptor (Homo sapiens), sequence (P35368 whole entry): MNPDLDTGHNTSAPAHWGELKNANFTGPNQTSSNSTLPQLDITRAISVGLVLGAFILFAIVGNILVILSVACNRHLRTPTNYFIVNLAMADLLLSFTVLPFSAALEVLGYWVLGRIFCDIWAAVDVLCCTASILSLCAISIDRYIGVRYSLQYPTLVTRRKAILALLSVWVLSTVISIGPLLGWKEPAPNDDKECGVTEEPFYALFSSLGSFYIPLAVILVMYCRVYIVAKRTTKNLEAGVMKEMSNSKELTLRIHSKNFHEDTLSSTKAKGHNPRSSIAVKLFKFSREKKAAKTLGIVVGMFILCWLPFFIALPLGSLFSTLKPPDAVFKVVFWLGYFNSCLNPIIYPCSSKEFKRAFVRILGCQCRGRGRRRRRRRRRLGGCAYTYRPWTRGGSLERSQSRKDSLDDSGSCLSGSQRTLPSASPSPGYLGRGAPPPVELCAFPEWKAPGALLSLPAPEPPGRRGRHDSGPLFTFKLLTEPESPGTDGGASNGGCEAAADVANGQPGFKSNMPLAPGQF
D(1B) dopamine receptor (Homo sapiens), sequence (P21918 whole entry): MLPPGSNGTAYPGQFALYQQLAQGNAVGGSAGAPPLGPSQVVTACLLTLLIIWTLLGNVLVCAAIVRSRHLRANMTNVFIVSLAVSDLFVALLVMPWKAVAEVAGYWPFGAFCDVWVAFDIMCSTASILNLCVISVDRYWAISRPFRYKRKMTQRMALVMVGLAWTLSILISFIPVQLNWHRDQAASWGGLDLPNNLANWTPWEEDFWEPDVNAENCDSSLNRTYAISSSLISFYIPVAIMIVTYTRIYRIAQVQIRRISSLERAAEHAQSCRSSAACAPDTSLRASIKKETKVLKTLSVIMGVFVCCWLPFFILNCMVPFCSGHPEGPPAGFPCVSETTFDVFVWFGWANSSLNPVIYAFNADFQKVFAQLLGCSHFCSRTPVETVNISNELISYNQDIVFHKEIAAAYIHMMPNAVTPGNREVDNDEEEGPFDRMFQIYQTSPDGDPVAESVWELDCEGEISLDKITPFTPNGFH

C[C@H](NC(=O)c1cnc2n1[C@](C)(Cc1ccc(C#N)cc1)C(=O)N2c1cc(Cl)c(F)c(Cl)c1)C(=O)NC1(c2ccccn2)CC1 [BI 1950]
residual activity [1]: 99% | residual activity [2]: 100% | residual activity [3]: 85% | residual activity [4]: 59% | residual activity [5]: 100% | residual activity [6]: 92% | residual activity [7]: 67% | residual activity [8]: 100% | residual activity [9]: 83% | residual activity [10]: 100% | residual activity [11]: 100% | residual activity [12]: 100% | residual activity [13]: 100% | residual activity [14]: 100% | residual activity [15]: 100% | residual activity [16]: 95% | residual activity [17]: 100% | residual activity [18]: 100% | residual activity [19]: 100% | residual activity [20]: 100% | residual activity [21]: 100% | inhibition [22]: 2.35% | residual activity [23]: 100% | residual activity [24]: 95% | inhibition [25]: 14% | residual activity [26]: 100% | residual activity [27]: 100% | residual activity [28]: 100% | residual activity [29]: 100% | residual activity [30]: 100% | residual activity [31]: 100% | inhibition [32]: -4.17% | residual activity [33]: 78% | residual activity [34]: 100% | residual activity [35]: 90% | residual activity [36]: 100% | residual activity [37]: 100% | residual activity [38]: 98% | residual activity [39]: 100% | residual activity [40]: 100% | residual activity [41]: 68% | residual activity [42]: 100% | residual activity [43]: 100% | residual activity [44]: 100%

C[C@@]1(Cc2ccc(C#N)cc2)C(=O)N(c2cc(Cl)cc(Cl)c2)c2ncc(C(=O)NC3(c4nc(C5CCC5)no4)CC3)n21 [BI 9446]
residual activity [1]: 92% | residual activity [2]: 100% | residual activity [3]: 100% | residual activity [4]: 48% | residual activity [5]: 100% | residual activity [6]: 100% | residual activity [7]: 100% | residual activity [8]: 100% | residual activity [9]: 92% | residual activity [10]: 100% | residual activity [11]: 100% | residual activity [12]: 100% | residual activity [13]: 100% | residual activity [14]: 100% | residual activity [15]: 100% | residual activity [16]: 73% | residual activity [17]: 100% | residual activity [18]: 100% | residual activity [19]: 100% | residual activity [20]: 100% | residual activity [21]: 100% | inhibition [22]: 23.8% | residual activity [23]: 100% | residual activity [24]: 86% | inhibition [25]: 7.21% | residual activity [26]: 100% | residual activity [27]: 100% | residual activity [28]: 100% | residual activity [29]: 100% | residual activity [30]: 99% | residual activity [31]: 100% | inhibition [32]: -8.68% | residual activity [33]: 89% | residual activity [34]: 100% | residual activity [35]: 91% | residual activity [36]: 100% | residual activity [37]: 100% | residual activity [38]: 100% | residual activity [39]: 100% | residual activity [40]: 100% | residual activity [41]: 81% | residual activity [42]: 90% | residual activity [43]: 100% | residual activity [44]: 100%
